Counter-ions that a name gives are not always drawn.
Assays:
[1] = photostability under Suntest CPS illuminator (filtered xenon lamp), HPLC; assay type: physicochemical; conditions: photodegradation of thin film on glass coverslips, simulated sunlight (xenon lamp), about 25 °C, 0-96 hours
Protocol: Compounds of the present invention were subjected to determinations of their photostability in side-by-side tests with their non-ionic parent analogs. These photostability tests are conducted as follows:
For each compound tested, four glass microscope coverslips (12 mm in diameter) for each illumination period (0, 3, 6, 12, 24, 48, and 96 hours) are spotted with 10 microliters of a one mg/mL acetonitrile or methanol solution of test compound. The solutions are allowed to evaporate leaving a thin film of test compound on each coverslip. The four coverslips representing the zero hour illumination period are placed in a 20 mL scintillation vial. In the vile is placed one mL of acetonitrile, which extracts the test chemical from the coverslip. The solution is then transferred to a two dram vile for analysis by HPLC. The average HPLC peak area generated by this sample defines the initial level of test compound. The remaining coverslips are then placed in the water-cooled chamber of the exposure platform of a Suntest CPS illuminator (Heraeus Instruments GmbH; Bereich Original Hanau, Hersaeusstrasse R-14, Postfach 1563, D-6450 Hanau 1). The exposure platform is covered with a quartz plate and maintained at about 25° C. for the duration of the test. The Suntest CPS illuminator employs a filtered xenon lamp, which provides illumination of a similar spectrum and intensity as sunlight. Four coverslips for each test compound are removed from the illuminator at the end of each illumination period described above. The four coverslips from each of the illumination periods are treated as described above and the acetonitrile extract is analyzed by HPLC. The average HPLC peak area from each of the illumination periods represents a diminished amount of test compound when compared to the initial level of test compound as determined from the zero hour illumination sample. The percents of test compound remaining from each of these illumination periods are used to generate a degradation curve from which a half life in hours is determined for each test compound.

[2] = system: tobacco budworm (Heliothis virescens [Fabricius]); assay: insecticidal activity against tobacco budworm, treated artificial diet surface; assay type: in vivo; conditions: 0.0025 millimoles on the surface of the diet; second instar larvae; five-day exposure; 7200 min
Protocol: Candidate insecticides are evaluated for activity against tobacco budworm (Heliothis virescens [Fabricius]) by applications to the surface of a wheat germ-based artificial insect diet. Solutions of the candidate insecticides are prepared for testing by diluting a standard 50 millimolar DMSO solution of each candidate insecticide with DMSO, then further diluting with a 1:1 water/acetone solution (V/V). Forty microliters of this solution of calculated concentration is then pipetted onto the surface of the diet in each of six containers, to provide six replicates for each rate of application. Once treated, the contents of the containers are allowed to dry, leaving the calculated concentration ( in millimoles) of candidate insecticide on the surface of the diet. In each container is placed one second instar tobacco budworm […]. The container is sealed with a transparent film, and then held in a growth chamber for five days. After the five-day exposure period the insecticidal activity of the candidate insecticide is recorded as percent mortality when compared to the total number of insects infested. Insecticidal activity at a concentration of candidate insecticide of 0.0025 millimoles on the surface of the diet is given for various compounds of this invention in Table 4.

| Structure (SMILES) | Half-life [1] [h] | Percent Mortality [2] [%] |
| --- | --- | --- |
| CCn1nnc(-c2ccc(C[N+]3([O-])CCC(C(O)(c4ccc(C(F)(F)F)cc4)c4ccc(C(F)(F)F)cc4)CC3)cc2)n1 (centres unmarked) [B, N-[4-(2-ethyl-2H-tetrazol-5-yl)phenylmethyl]-4-[bis(4-trifluoromethylphenyl)hydroxymethyl]piperidine N-oxide, reference compound] | 13.9 |  |
| COC(=O)Nc1ccc(C[N+]2([O-])CCC(C(O)(c3ccc(OC(F)(F)F)cc3)c3ccc(OC(F)(F)F)cc3)CC2)cc1 (centres unmarked) [Compound 16] |  | 100 |

More lines, main results first:

| Half-life [1] [h] | Structure (SMILES) | Percent Mortality [2] [%] |
| --- | --- | --- |
| 5.5 | CCn1nnc(-c2ccc(CN3CCC(C(O)(c4ccc(C(F)(F)F)cc4)c4ccc(C(F)(F)F)cc4)CC3)cc2)n1 [A, reference compound] |  |
| 23.0 | CCn1nnc(-c2ccc(CN3CCC(C(O)(c4ccc(C(F)(F)F)cc4)c4ccc(C(F)(F)F)cc4)CC3)cc2)n1 [Compound 7] |  |
| 34.0 | CCn1nnc(-c2ccc(C[N+]3([O-])CCC(C(O)(c4ccc(C(F)(F)F)cc4)c4ccc(C(F)(F)F)cc4)CC3)cc2)n1 (centres unmarked) [Compound 33, N-[4-(2-ethyl-2H-tetrazol-5-yl)phenylmethyl]-4-[bis(4-trifluoro-methylphenyl)hydroxymethyl]piperidine N-oxide ethanesulfonic acid salt] |  |
